Holding throughout (type): cell-based
The subject of experiment [1] is SMMC-7721 (human liver cancer cells). In words: Inhibition of proliferation of tumor cell lines (MTT), SMMC-7721. Conditions: Homo sapiens, SMMC-7721, 72 h, read-out: IC50 value of compound for inhibition of proliferation of tumor cell lines, SMMC-7721. The protocol: (§1) In this example, the inhibitory activity of compounds of the present invention against proliferation of seven human tumor cell lines and mouse B16-F10 melanoma cells was tested in vitro, and the IC50 value (50% inhibitory concentration) of compounds against each tumor cell line was calculated.
(§2) The seven human tumor cell lines are: MCF-7 (human breast cancer cells), LOVO (human colon cancer cells), A549 (human lung cancer cells), BGC-823 (human gastric cancer cells), SMMC-7721 (human liver cancer cells), K562 (human leukemia cells), and HeLa (human cervical cancer cells).
(§3) IC50 values of the compounds for A549, BGC-823, LOVO, MCF-7, SMMC-7721, HeLa, and B16-F10 cells were tested. The above cells were routinely cultured in 1640 nutrient solution containing 10% calf serum, with passage for 1 time every 2 days, and the cells in logarithmic growth phase were taken for experiments. After the A549, BGC-823, LOVO, MCF-7, SMMC-7721, HeLa and B16-F10 cells in logarithmic growth phase were subjected to 0.25% trypsin digestion, they were blown into a single cell suspension, and then the cell concentration was adjusted to about 1×10^5·mL^−1 using RPMI 1640 solution containing 10% calf serum. The cells were seeded in a 96-well culture plate at 100 μL per well, and cultured for 24 hours until the cells were attached. K562 cells were taken and centrifuged and diluted into 2×10^5·mL^−1 single cell suspension with RPMI 1640 solution containing 10% calf serum, and inoculated into a 96-well culture plate at 100 μL per well.
(§4) 100 μL of sample solution with different concentrations to be tested were added to the above 96-well plate, each concentration was added to 4 wells in parallel, and the cell control group was added with an equal volume of RPMI 1640 medium containing 10% calf serum to make a reaction volume of 200 μL. After incubating in an incubator at 37° C., 5% CO2 for 72 h, 10 μL of 5 mg·mL^−1 MTT solution was added to each well, and incubated at 37° C. for 4 h. The supernatant was carefully aspirated, 180 μL of DMSO was added to each well followed by shaking, and the absorbance (OD) value was measured at 570 nm on the microplate reader. The inhibition rate was calculated, and regression equation was established with the logarithmic value of the sample concentration and the inhibition rate (IR) to find the IC50 value of the compound against the cells to be tested. IR (%)=(1−OD value of the experimental group/OD value of the cell control group)×100%

The subject of experiment [2] is mouse B16-F10 melanoma cells. Put plainly: Inhibition of proliferation of tumor cell lines (MTT), B16-F10. The note with it: Mus musculus, B16-F10, 72 h, read-out: IC50 value of compound for inhibition of proliferation of tumor cell lines, B16-F10. How it is done:
as §1, §3, §4

The test system of experiment [3] is release of IL-8 by human keratinocytes (HaCaT). In words: Release of IL-8 by human keratinocytes (HaCaT), IL-8 Elisa. Conditions: Homo sapiens, HaCaT, 24 h, (Csample−Ccontrol)/Ccontrol×100%, read-out: Efficiency of compound in stimulating the release of IL-8 by HaCaT cells; for activation at 0.1 µg/mL: 0.1 μg/mL; for activation at 1 µg/mL: 1 μg/mL. How it is done: This Example investigated the effect of compound on release of IL-8 by human keratinocytes (HaCaT) and calculated the efficiency of each compound in stimulating the release of IL-8 by human keratinocytes (HaCaT).
Hacat cells were cultured in MEM+10% FBS under the conditions of 37° C., 5% CO2, and when the cells reached 80-95% fusion, they were inoculated into a 96-well culture plate (1×10^4 cells/well) at 100 μL/well, and incubated for 18-24 h. The supernatant was discarded and the cells were incubated for 3-6 h in 1% FBS medium. Different concentrations of the sample solution of compound to be tested were added to each well, and the cell control group was added with an equal volume of 1% FBS medium at 10 μL/well, and incubated for 24 h. The supernatant was taken and tested according to the operation sequence of the IL-8 Elisa kit. Calculation formula of Efficiency: Efficiency (%)=(Csample−Ccontrol)/Ccontrol×100%

The test system of experiment [4] is neutrophilic granulocytes. In words: Neutrophil oxidative burst (luminol chemiluminescence). Conditions: Neutrophil, rat neutrophils, (Csample−Ccontrol)/Ccontrol×100%, read-out: Efficiency of compounds in stimulating neutrophil oxidative burst; for activation at 0.1 µg/mL: 0.1 μg/mL; for activation at 3 µg/mL: 3 μg/mL. The protocol: This example investigated the effect of compound on neutrophil oxidative burst and calculated the efficiency of each compound in stimulating neutrophil oxidative burst.
Blood was taken from the abdominal aorta of rat. The neutrophilic granulocytes were isolated by the operational procedure of the rat peripheral blood neutrophil isolation kit. The neutrophilic granulocytes were re-suspended by Hanks, and were plated in a 96-well white plate at 1×10^5 cells/well, 80 μL/well; 1 mM of Luminol was added at 10 μL/well; 10 μL of the sample was added to each well, and the degree of oxidative burst was evaluated by chemiluminescence. Calculation formula of Efficiency: Efficiency (%)=(Csample−Ccontrol)/Ccontrol×100%

For experiment [5], the system named is A549 (human lung cancer cells). In words: Inhibition of proliferation of tumor cell lines (MTT), A549. The note with it: Homo sapiens, A549, 72 h, read-out: IC50 value of compound for inhibition of proliferation of tumor cell lines, A549. How it is done: as §1, §2, §3, §4
For experiment [6], the system named is HeLa (human cervical cancer cells). In words: Inhibition of proliferation of tumor cell lines (MTT), HeLa. Conditions: Homo sapiens, 72 h, read-out: IC50 value of compound for inhibition of proliferation of tumor cell lines, HeLA. The protocol:
as §1, §2, §3, §4

Experiment [7] relates to LOVO (human colon cancer cells). In words: Inhibition of proliferation of tumor cell lines (MTT), LOVO. The note with it: Homo sapiens, 72 h, read-out: IC50 value of compound for inhibition of proliferation of tumor cell lines, LOVO. The protocol:
as §1, §2, §3, §4

For experiment [8], the system named is K562 (human leukemia cells). Put plainly: Inhibition of proliferation of tumor cell lines (MTT), K562. The note with it: Homo sapiens, K562, 72 h, read-out: IC50 value of compound for inhibition of proliferation of tumor cell lines, K562. How it is done:
as §1, §2, §3, §4

Experiment [9] has as its system BGC-823 (human gastric cancer cells). Put plainly: Inhibition of proliferation of tumor cell lines (MTT), BGC-823. The note with it: Homo sapiens, BGC-823, 72 h, read-out: IC50 value of compound for inhibition of proliferation of tumor cell lines, BGC-823. The protocol:
as §1, §2, §3, §4

The test system of experiment [10] is MCF-7 (human breast cancer cells). In words: Inhibition of proliferation of tumor cell lines (MTT), MCF-7. The note with it: Homo sapiens, MCF7, MCF-7, 72 h, read-out: IC50 value of compound for inhibition of proliferation of tumor cell lines, MCF-7. The protocol: as §1, §2, §3, §4

In brackets after ≈: the same amount, converted by molar mass. A value given as a limit tells only on which side of the number the result lay.

With `CCCCCCCCCCCC(=O)O[C@@]12C[C@@H](C)[C@]34C=C(C)[C@H](OC(=O)C(C)C(C)C)[C@@]3(O)[C@H](O)C(CO)=C[C@H](C4=O)[C@@H]1C2(C)C` (stereo partly drawn) [3-O-(2,3-dimethylbutyryl)-13-O-dodecanoyl-ingenol], the IC50 was found to be 14.5 µg/mL (≈ 22.5 µM) in experiment [1]; 17.8 µg/mL (≈ 27.6 µM) in experiment [2]; 11 µg/mL (≈ 17.1 µM) in [5]; 24.3 µg/mL (≈ 37.7 µM) in experiment [6]; 7.6 µg/mL (≈ 11.8 µM) in experiment [7]; 0.12 µg/mL (≈ 0.186 µM) in experiment [8]. In addition, the IC50 came to 10.4 µg/mL (≈ 16.1 µM) in experiment [9] and 9.05 µg/mL (≈ 14 µM) in experiment [10]. In addition, the activation at 0.1 µg/mL worked out at 50% in experiment [3] and 71.4% in [4].

In the case of `CCCCCCCCCCCC(=O)O[C@@]12C[C@@H](C)[C@]34C=C(C)[C@H](OC(=O)CCCCC)[C@@]3(O)[C@H](O)C(CO)=C[C@H](C4=O)[C@@H]1C2(C)C` [3-O-hexanoyl-13-O-dodecanoyl-ingenol], the IC50 in experiment [1] was 16.1 µg/mL (≈ 25 µM); in [5], 18.5 µg/mL (≈ 28.7 µM); in [7] it was 16.5 µg/mL (≈ 25.6 µM); in [8], under 0.2 µg/mL; in experiment [9], 18.3 µg/mL (≈ 28.4 µM); in experiment [10], 14 µg/mL (≈ 21.7 µM). For the same molecule, the activation at 0.1 µg/mL was found to be 66% in experiment [3] and 173% in experiment [4].

As to `CCCCCCCCCCCC(=O)O[C@@]12C[C@@H](C)[C@]34C=C(C)[C@H](O)[C@@]3(O)[C@H](O)C(COC(=O)C(C)C(C)C)=C[C@H](C4=O)[C@@H]1C2(C)C` (stereo partly drawn) [20-O-(2,3-dimethylbutyryl)-13-O-dodecanoyl-ingenol], the IC50 came to 10.7 µg/mL (≈ 16.6 µM) in experiment [1]; 16.6 µg/mL (≈ 25.7 µM) in experiment [2]; 8.89 µg/mL (≈ 13.8 µM) in experiment [5]; 14.5 µg/mL (≈ 22.5 µM) in experiment [6]; 8.36 µg/mL (≈ 13 µM) in experiment [7]; 0.64 µg/mL (≈ 0.992 µM) in [8]. Besides, the results for the IC50 in [9] and in experiment [10] were 11 µg/mL (≈ 17.1 µM) and 10.1 µg/mL (≈ 15.7 µM), respectively. The activation at 3 µg/mL in experiment [4] was 64.5%.

As to `CCCCCCCCCC(=O)O[C@@]12C[C@@H](C)[C@]34C=C(C)[C@H](O)[C@@]3(O)[C@H](O)C(CO)=C[C@H](C4=O)[C@@H]1C2(C)C` [Compound 1a, 13-O-decanoyl-ingenol], the IC50 in experiment [1] turned out to be 19.5 µg/mL (≈ 37.6 µM); in experiment [5] it was 15.1 µg/mL (≈ 29.1 µM); in experiment [6] it was 29.1 µg/mL (≈ 56.1 µM); in experiment [7], 9.77 µg/mL (≈ 18.8 µM); in [8], 0.7 µg/mL (≈ 1.35 µM); in experiment [9], 15 µg/mL (≈ 28.9 µM). The IC50 in experiment [10] stood at 13.8 µg/mL (≈ 26.6 µM). The activation at 3 µg/mL in experiment [4] is 65.2%.

As for `C/C=C(/C)C(=O)O[C@H]1C(C)=C[C@]23C(=O)[C@@H](C=C(CO)[C@@H](O)[C@]12O)[C@@H]1C(C)(C)[C@]1(O)C[C@H]3C` [Compound 3, 3-O-angeloyl-13-hydroxy-ingenol], the activation at 1 µg/mL in experiment [3] turned out to be 23.8%. For the same molecule, the activation at 3 µg/mL in experiment [4] was 65%.

Take `CCCCCCCC(=O)O[C@@]12C[C@@H](C)[C@]34C=C(C)[C@H](O)[C@@]3(O)[C@H](O)C(CO)=C[C@H](C4=O)[C@@H]1C2(C)C` [Compound 7, 13-O-n-octanoyl-ingenol]: the IC50 was determined as 16 µg/mL (≈ 32.6 µM) in [1]; 38.4 µg/mL (≈ 78.3 µM) in experiment [2]; 29.7 µg/mL (≈ 60.5 µM) in experiment [5]; 29.3 µg/mL (≈ 59.7 µM) in experiment [6]; 24.1 µg/mL (≈ 49.1 µM) in experiment [7]; 1.72 µg/mL (≈ 3.51 µM) in [8]. In addition, the IC50 is 25.1 µg/mL (≈ 51.2 µM) in experiment [9] and 16.2 µg/mL (≈ 33 µM) in [10]. In [4], the activation at 3 µg/mL was found to be 45%.

On to `CCCCCCCCCCCC(=O)O[C@@]12C[C@@H](C)[C@]34C=C(C)[C@H](OC(=O)CCC)[C@@]3(O)[C@H](O)C(CO)=C[C@H](C4=O)[C@@H]1C2(C)C` [Compound 11, 3-O-n-butanoyl-13-O-dodecanoyl-ingenol], for which the IC50 was 19.1 µg/mL (≈ 31 µM) in experiment [1]; 26.2 µg/mL (≈ 42.5 µM) in experiment [2]; 14.3 µg/mL (≈ 23.2 µM) in experiment [5]; 20.3 µg/mL (≈ 32.9 µM) in experiment [6]; 8.82 µg/mL (≈ 14.3 µM) in [7]; 0.1 µg/mL (≈ 0.162 µM) in experiment [8]. For the same molecule, the IC50 in [9] stood at 13.4 µg/mL (≈ 21.7 µM); in [10], 18.5 µg/mL (≈ 30 µM). For the same molecule, the activation at 3 µg/mL in experiment [4] turned out to be 33.5%.

For the molecule `CCCCCCCCCC(=O)O[C@@]12C[C@@H](C)[C@]34C=C(C)[C@H](O)[C@@]3(O)[C@H](O)C(COC(=O)C(C)C(C)C)=C[C@H](C4=O)[C@@H]1C2(C)C` (stereo partly drawn) [Compound 14, 20-O-(2,3-dimethylbutyryl)-13-O-decanoyl-ingenol], in experiment [3], the activation at 1 µg/mL amounted to 22.6%. Moreover, the activation at 3 µg/mL in [4] stood at 62.8%.

As to `C/C=C(/C)C(=O)OCC1=C[C@@H]2C(=O)[C@]3(C=C(C)[C@H](O)[C@@]3(O)[C@@H]1O)[C@H](C)C[C@]1(OC(=O)CCCCCCCCCCC)[C@H]2C1(C)C` [Compound 15b, 20-O-angeloyl-13-O-dodecanoyl-ingenol], the IC50 is 13.1 µg/mL (≈ 20.8 µM) in experiment [1]; 9.09 µg/mL (≈ 14.5 µM) in experiment [2]; 10 µg/mL (≈ 15.9 µM) in [5]; 10.2 µg/mL (≈ 16.2 µM) in [6]; 15.2 µg/mL (≈ 24.2 µM) in experiment [7]; 0.001 µg/mL (≈ 0.00159 µM) in experiment [8]. Besides, the IC50 in experiment [9] was 20.6 µg/mL (≈ 32.8 µM); in experiment [10], 23.3 µg/mL (≈ 37.1 µM). Besides, the activation at 3 µg/mL in experiment [4] was found to be 360%.
